Assay results as given in patent US8461389B2, “Psycho-pharmaceuticals” (University College Dublin, National University of Ireland, …, priority 2008, dated 2013).

Experiments:
[1] = tested on: patients with depressive states; details: Azoulay, Le Bezu and Leyritz 1956; cited from earlier work
C57B16 mice [2] = experiment: Forced swim test; assay type: in vivo; details: 3 and 5 mg/kg i.p.; FIGS. 10A and 10B
Method: • 1. Fill a 12 cm diameter glass cylinder to 10 cm with 22° C. water. • 2. Place two animals simultaneously in individual side-by-side cylinders separated by an opaque screen. • 3. Place mice in the cylinders for 6 minutes. • 4. Observe the behaviour of the mice for the last 4-minutes of the 6-minute experimental session. • 5. Sessions are videotaped and scored blind, Immobility is scored by summing the time spent immobile; movements necessary to maintain the animals head above water were not scored with data from treated groups compared with data from the control group using nonpaired Student's t tests (two tailed). • 6. Animals are dried with paper towels and heat lamps. FST in Rats: Habituation Session (Day 1) • 1. On Day 1, […] prior to testing, place the animals in the experimental room 60 min before the beginning of the habituation session. Randomly assign animals to a drug treatment, but give all animals within a cage the same treatment. Make food and water available throughout the experiment. • 2. Weigh two animals individually, then place one rat in each of the two cylinders (20 cm in diameter×40 cm high) containing water (25° C.) for 15 min (habituation session). No scoring of immobility is performed during the habituation session. […]
Values are expressed as mean±S.E.M (n=8). Statistical difference was determined using a Mann Whitney non-parametric U-test. […]

C57B16 mice [3] = experiment: Water maze spatial learning; assay type: in vivo; details: i.p. once daily for 7 days; FIG. 6
Method: The test apparatus consists of a large circular pool (1 m diameter, 80 cm high, temperature 26° C.) with a platform (11 cm diameter) submerged 1.5 cm below the surface. Both the pool and the platform were constructed of black polyvinyl plastic, which offered no intra-maze cues. The experimental room contained several extra-maze visual cues. During training the platform was hidden in the same quadrant 30 cm away from the edge of the maze. There were five trials, each of them beginning with the rat facing the wall of the maze in one of three different locations. The time taken for the rat to find the platform within a 90 s period was recorded. Probe trials where the platform was removed from the maze and the time the animal spent in the target quadrant were also performed. […]
Finally, drugs inducing neurobehavioural profile are evaluated in the water maze spatial learning paradigm, a robust task of information acquisition and consolidation—a measure of pro-cognitive action. […]
The influence of Captodiamine on open-field behaviour (FIG. 3), novel object recognition (FIG. 8), forced swim test (FIGS. 10A and 10B) and water maze spatial learning (FIG. 6). […] Values were analysed using a two way ANOVA and Student t-test and those with a p values<0.05 were accepted as significant and where appropriate are indicated with an asterisk.

[4] = tested on: BDNF (Brain-derived neurotrophic factor); experiment: BDNF levels in brain regions by ELISA after sub-chronic administration; assay type: in vivo, mice; details: sub-chronic 7 day treatment, FIG. 9D
Method: Neurotrophic factor concentration was determined by using an ELISA purchased from Promega Inc;
The Experimental protocol employed in the behavioural evaluation of Captodiamine is set out as follows: Three separate cohorts of C57B16 mice were employed in the behavioural evaluation of Captodiamine (see FIG. 7). Cohort 1 was used to evaluate the drug effect on prepulse inhibition, spatial learning, open-field and novel object recognition. Cohort 2 was used to evaluate drug effects on the forced swim test and the elevated X-maze. The behavioural tests were administered in sequence as per day number indicated in the bar of FIG. 7. The drug was administered by the intraperitoneal route and on the day of training the drug was administered after the behavioural analysis. Cohort 3 was used for analysis of growth factor (GF) expression (such as, for example, Brain Derived Neurotrophic Factor (BDNF and Glial Derived Neurotrophic Factor (GDNF). The brains were removed immediately after sacrifice, the relevant brain areas dissected, homogenised and stored at −80° C. until analysis. Captodiamine/UCD-0620 was administered at doses of 3 and 5 mg/kg. The compound was administered once daily, via the intraperitoneal route, for 7 days prior to testing and the animals were drug-free at time of training.
The Structure (FIG. 9A), receptor affinity (FIG. 9B), pharmacokinetics (FIG. 9C) and growth factor modulation (FIG. 9D) of Captodiamine are provided. Analysis of receptor affinities was performed by Novascreen™ and those displacing >20% of the natural ligand are indicated by the filled boxes. Blood levels of Captodiamine were determined by GC mass spectroscopy. In separate samples taken from a cannulated jugular at increasing time intervals following a single intraperitoneal injection of tha drug (5 mg/kg). Growth factor analysis was performed using tissue homogenates and ELISA assays specific for each growth factor (Promega). Values were analysed using a Student t-test and those with a p value<0.05 were accepted as significant and are indicated with an asterisk.

CCCCSc1ccc(C(SCCN(C)C)c2ccccc2)cc1 (stereo not drawn) [Captodiamine, 2-[(4-butylsulfanylphenyl)-phenyl-methyl]sulfanyl-N,N-dimethyl-ethanamin]
clinical usefulness in depressive states resistant to largactil [1]: useful in only one patient
time to immobility in the forced swim test (C57B16 mice [2]): significant increase on time to immobility
water maze spatial learning task performance (C57B16 mice [3]): significant pro-cognitive action
BDNF expression levels, hippocampus [4]: no effect
BDNF expression levels, hypothalamus [4]: significantly increased
BDNF expression levels, prefrontal cortex [4]: no effect
